Measured values as given in patent publication US4837204A, “Functionalized peptidyl aminodiols and -triols” (Abbott Laboratories, priority 1988, dated 1989).
pIC50: −log10 of the molar value.

Molecular target: T1, human renal renin (Homo sapiens, UniProt P00797)
T1 construct: human renal renin, free from acid proteolytic activity; from tissue
T1 sequence (P00797 67-406): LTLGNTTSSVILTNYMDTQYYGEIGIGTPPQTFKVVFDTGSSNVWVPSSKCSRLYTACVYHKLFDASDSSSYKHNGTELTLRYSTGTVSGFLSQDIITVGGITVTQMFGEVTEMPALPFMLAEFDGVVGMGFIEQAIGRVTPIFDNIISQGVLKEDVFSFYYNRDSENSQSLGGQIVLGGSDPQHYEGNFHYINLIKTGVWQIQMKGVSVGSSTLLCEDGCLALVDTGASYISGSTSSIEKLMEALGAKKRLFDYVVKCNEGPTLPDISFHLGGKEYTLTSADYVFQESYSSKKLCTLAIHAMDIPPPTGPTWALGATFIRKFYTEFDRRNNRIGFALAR
Experiment: in vitro inhibition of human renal renin (angiotensin I formed measured by radioimmunoassay)
Type: biochemical
Details: human renal renin with renin substrate (human angiotensinogen), 37° C., pH 6.0

Structure (SMILES) | pIC50
CCOC(=O)N[C@@H](Cc1ccccc1)C(=O)N[C@@H](CC(C)C)C(=O)N[C@@H](CC1CCCCC1)C(O)C(O)C(O)C(C)C (single isomer, unassigned) [Example 36A] | 7.52
CCOC(=O)N[C@@H](Cc1ccccc1)C(=O)N[C@@H](CC(C)C)C(=O)N[C@@H](CC1CCCCC1)C(O)C(O)C(O)C(C)C (single isomer, unassigned) [Example 36B] | 8.00
CC(C)CCC(=O)NC[C@H](O)[C@H](O)[C@H](CC1CCCCC1)NC(=O)[C@H](Cc1c[nH]cn1)NC(=O)[C@H](Cc1ccccc1)NC(=O)OC(C)(C)C [Example 14, Boc-Phe-His Amide of (2S,3R,4S)-1-(3-Methylbutylcarbonylamino)-2,3-dihydroxy-4-amino-5-cyclohexylpentane] | 8.40
CC(C)CCC(=O)NC[C@H](O)[C@H](O)[C@H](CC1CCCCC1)NC(=O)C(Cc1cc[nH]n1)NC(=O)[C@H](Cc1ccccc1)NC(=O)OC(C)(C)C (stereo partly drawn) [Example 15, Boc-Phe-d,l-3-pyrazolylalanine Amide of (2S,3R,4S)-1-(3-Methylbutylcarbonylamino)-2,3-dihydroxy-4-amino-5-cyclohexylpentane] | 8.22
CC(C)CS(=O)(=O)NC[C@H](O)[C@H](O)[C@H](CC1CCCCC1)NC(=O)[C@H](Cc1c[nH]cn1)NC(=O)[C@H](Cc1ccccc1)NC(=O)OC(C)(C)C [Example 16, Boc-Phe-His Amide of (2S,3R,4S)-1-(Isobutylsulfonylamino)-2,3-dihydroxy-4-amino-5-cyclohexylpentane] | 8.00
CC(C)(C)OC(=O)N[C@@H](Cc1ccccc1)C(=O)N[C@@H](Cc1c[nH]cn1)C(=O)N[C@@H](CC1CCCCC1)[C@@H](O)[C@@H](O)CN=[N+]=[N-] [Example 17, Boc-Phe-His Amide of (2S,3R,4S)-1-Azido-2,3-dihydroxy-4-amino-5-cyclohexlpentane] | 9.40
COc1ccc(C[C@H](NC(=O)OC(C)(C)C)C(=O)N[C@@H](Cc2c[nH]cn2)C(=O)N[C@@H](CC2CCCCC2)[C@@H](O)[C@@H](O)CN=[N+]=[N-])cc1 [Example 19, Boc-(O-methyl)Tyr-His Amide of (2S,3R,4S)-1-Azido-2,3-dihydroxy-4-amino-5-cyclohexylpentane] | 9.19
C[C@H](NC(=O)[C@H](Cc1ccccc1)NC(=O)OC(C)(C)C)C(=O)N[C@@H](CC1CCCCC1)[C@@H](O)[C@@H](O)CN=[N+]=[N-] [Example 20, Boc-Phe-Ala-OH Amide of (2S,3R,4S)-1-Azido-2,3-dihydroxy-4-amino-5-cyclohexylpentane] | 8.00
C[C@H](NC(=O)[C@H](Cc1ccccc1)NC(=O)OC(C)(C)C)C(=O)N[C@@H](CC1CCCCC1)[C@@H](O)[C@@H](O)CN [Example 31, Boc-Phe-Ala Amide (4-amino) of (2S,3R,4S)-1,4-Diamino-2,3-dihydroxy-5-cyclohexylpentane] | 7.26
CCOC(=O)N[C@@H](CC(C)C)C(=O)N[C@@H](CC(C)C)C(=O)N[C@@H](CC1CCCCC1)C(O)C(O)CO (stereo partly drawn) [Example 32, Ethoxycarbonyl-Leu-Leu Amide of (2RS,3RS,4S)-Amino-5-cyclohexyl-1,2,3-trihydroxypentane] | 7.30
COc1ccc(C[C@H](NC(=O)C(C)C)C(=O)N[C@@H](Cc2c[nH]cn2)C(=O)N[C@@H](CC2CCCCC2)[C@@H](O)[C@@H](O)CN=[N+]=[N-])cc1 [Example 47, Isobutyryl (O-methyl)Tyr-His Amide of (2S,3R,4S)-1-Azido-2,3-dihydroxy-4-amino-5-cyclohexylpentane] | 8.70
CC(C)C(=O)N[C@H](C(=O)N[C@@H](Cc1c[nH]cn1)C(=O)N[C@@H](CC1CCCCC1)[C@@H](O)[C@@H](O)CN=[N+]=[N-])[C@@H](C)OCc1ccccc1 [Example 52, Isobutyryl (O-benzyl)Thr-His Amide of (2S,3R,4S)-1-Azido-2,3-dihydroxy-4-amino-5-cyclohexylpentane] | 8.40
COc1ccc(C[C@H](NC(=O)N(C)C)C(=O)N[C@@H](Cc2c[nH]cn2)C(=O)N[C@@H](CC2CCCCC2)[C@@H](O)[C@@H](O)CN=[N+]=[N-])cc1 [Example 69, Dimethylaminocarbonyl (O-methyl)Tyr-His Amide of (2S,3R,4S)-1-Azido-2,3-dihydroxy-4-amino-5-cyclohexylpentane] | 8.00
CC(C)(CC(=O)N[C@@H](Cc1ccccc1)C(=O)N[C@@H](Cc1c[nH]cn1)C(=O)N[C@@H](CC1CCCCC1)[C@@H](O)[C@@H](O)CN=[N+]=[N-])CC(=O)OC(C)(C)C [Example 70, (4-t-Butyloxycarbonyl-3,3-dimethyl)butanoyl-Phe-His Amide of (2S,3R,4S)-1-Azido-2,3-dihydroxy-4-amino-5-cyclohexylpentane] | 9.00
COc1ccc(C[C@H](NC(=O)N2CCOCC2)C(=O)N[C@@H](Cc2c[nH]cn2)C(=O)N[C@@H](CC2CCCCC2)[C@@H](O)[C@@H](O)CN=[N+]=[N-])cc1 [Example 72, Morpholinocarbonyl (O-methyl)Tyr-His Amide of (2S,3R,4S)-1-Azido-2,3-dihydroxy-4-amino-5-cyclohexylpentane] | 8.40
